We go through two compounds from US20060134197A1, “Method of reducing unpleasant taste and/or unpleasant odor” (priority 2002, published 2006).

Assay [1] can be described thus: Separately carried panel test of smell of cocoa samples. Conditions: all of nine panels.
Assay [2] is described as follows: Inhibiting the production of hydrogen sulfide from heated minced mackerel. Conditions: minced mackerel with 5% saccharide solution, headspace gas. As for the experimental part: Five grams of minced mackerel, prepared by mincing commercialized mackerel without head part, internal organs and bone with a mincer to homogeneity, was placed in a 20-ml vial, and admixed with 5 ml of an aqueous solution containing on a dry solid basis 5% of “TREHA®”, a food grade hydrous α,α-trehalose commercialized by Hayashibara Biochemical laboratories, Inc., Okayama, Japan (purity 99.0% or more), sucrose (a commercialized granulated sugar), or a syrupy saccharide mixture containing saccharide derivatives of α,α-trehalose prepared in Example 1. The resulting vials were sealed with a butyl gum cap to prepare test samples. As a control, a vial containing 5 g of the minced mackerel and 5 ml of deionized water was sealed with a butyl gum cap for a control sample. […]
Similarly as in Experiment 4, the content of hydrogen sulfide was measured using 10 ml of a headspace gas by “GASTECH No. 4 LT”, a hydrogen sulfide detector commercialized by GL Science Corporation, under an aspiration time of one minute.
The values of the production of amines, hydrogen sulfide and aldehydes of each test sample were compared with the value of control defined as 100 to calculate the relative values thereof. And then, the relative rates of inhibiting the production of amines, hydrogen sulfide and aldehydes were respectively calculated by 100 minus each of the relative values.

Assay [3] can be described thus: Inhibiting the production of lower aldehydes and 2,3-butandion from heated cacao powder. Particulars: 1 g cacao powder in 4 ml of 2.5% saccharide solution; microwave, then 100° C. five minutes. The text has this: “Stuffy smell”, meaning a kind of foreign smell generated from cocoa, chocolate, and compositions thereof during their processes, is known to deteriorate their flavor. 2,3-Butandion and lower aldehydes are known as a causative substance of foreign smell. On the other hand, […], classified in lower aldehydes, is known as one of the aromatic ingredients of chocolates. To confirm the effect of saccharide derivatives of α,α-trehalose on inhibiting the production of such compounds, the following experiment was carried out. Four milliliters of 2.5%, on a dry solid basis, saccharide solution containing either of sucrose, “TREHA®” (an α,α-trehalose commercialized by Hayashibara Biochemical Laboratories, Inc., Okayama, Japan), a commercialized enzyme-treated starch syrup and a syrupy saccharide mixture containing saccharide derivatives of α,α-trehalose prepared in Example 1 (on a dry solid basis about 53% of saccharide derivatives of α,α-trehalose) was placed in a 20-ml vial and admixed with 1 g of cacao powder. The resulting vial was covered with a plastic warp and heated by a microwave oven (500 W) for five seconds. As a control, 4 ml of distilled water and 1 g of cacao powder were placed in the vial and treated similarly as in the saccharide solutions. These vials were sealed with a butyl gum cap over the plastic wrap and heated at 100° C. in a heat block for five minutes. Two milliliters of the resulting headspace gas was subjected to gas chromatography to measure the contents of lower aldehydes and 2,3-butandion according to the method in Experiment 5-4. The amount of total aldehydes was calculated by totalizing the measured amounts of three kinds of aldehydes and other aldehydes listed in Table 8.
The resulting value of the production of aldehydes or 2,3-butandion of each of the test samples was compared with the value of control defined as 100 to calculate the relative value of the production of them. And then, the relative rate of inhibiting the production of them was calculated by 100 minus the relative value.

Assay [4] is described as follows: Inhibiting the production of hydrogen sulfide from L-cysteine due to heat-decomposition. Particulars: 2.5 g L-cysteine hydrochloride and 5 g saccharide in 50 ml; 80° C. for 15 minutes; 100 minus relative value, control defined as 100. An excerpt:
Two and half grams of precisely weighted L-cysteine hydrochloride (special reagent grade) and on a dry solid basis 5 g of a precisely measured saccharide sample; i.e. hydrous crystalline α,α-trehalose (reagent grade, purity 99.0% or more, commercialized by Hayashibara Biochemical Laboratories, Inc., Okayama, Japan), α-maltosyl α,α-trehalose prepared in the following Example 5 (purity 98.1%), or a reagent grade maltotetraose (purity 97.0% or more, commercialized by Hayashibara Biochemical Laboratories, Inc., Okayama, Japan); were placed in a 50-ml volume measuring flask and dissolved in deionized water to give a final volume of 50 ml. As a control, 2.5 g of precisely measured L-cysteine hydrochloride (special reagent grade) was dissolved in deionized water to give a final volume of 50 ml. Five ml of each sample was place into a 20-ml volume vial, sealed with a butyl gum cap, and kept at 80° C. for 15 minutes in an incubator. Hydrogen sulfide contained in 10 ml of the resulting headspace gas was measured by “GASTECH No. 4 LT”, a hydrogen sulfide detector commercialized by GL Science Corporation, under an aspiration time of one minute. The resulting value of the production of hydrogen sulfide of each test sample was compared with the value of control defined as 100 to calculate the relative value of the production of hydrogen sulfide. And then, the relative rate of inhibiting the production of hydrogen sulfide was calculated by 100 minus the relative value.

Take `OC[C@H]1O[C@H](O[C@H]2O[C@H](CO)[C@@H](O)[C@H](O)[C@H]2O)[C@H](O)[C@@H](O)[C@@H]1O` [α,α-Trehalose, α,α-trehalose]: the “Smell of cocoa sample judged by panels” value in assay [1] is on record as “favorite smell”. For the same compound, the “Relative rate of inhibiting the production of hydrogen sulfide” value in assay [2] was 26. Further, in assay [3], the “Relative rate of inhibiting the production of 2,3-butandion” value is 100, the “Relative rate of inhibiting the production of acetaldehyde” value was determined as 50, the “Relative rate of inhibiting the production of isobutanal” value came out at 58 and the “Relative rate of inhibiting the production of other aldehydes” value is reported as 0. In assay [3], the “Relative rate of inhibiting the production of propanal” value stood at 47 and the “Relative rate of inhibiting the production of total aldehydes” value is on record as 53. Also, the “Relative rate of inhibiting the production of hydrogen sulfide” value in assay [4] is 52.
With `OC[C@H]1O[C@@](CO)(O[C@H]2O[C@H](CO)[C@@H](O)[C@H](O)[C@H]2O)[C@@H](O)[C@@H]1O` [Sucrose, sucrose], in assay [2], the “Relative rate of inhibiting the production of hydrogen sulfide” value is recorded as 12. For the same compound, in assay [3], the “Relative rate of inhibiting the production of 2,3-butandion” value stood at 95, the “Relative rate of inhibiting the production of acetaldehyde” value was 44, the “Relative rate of inhibiting the production of isobutanal” value was 52 and the “Relative rate of inhibiting the production of other aldehydes” value is given as 0. In assay [3], the “Relative rate of inhibiting the production of propanal” value was 43 and the “Relative rate of inhibiting the production of total aldehydes” value is listed as 48.
